In publication PMC3474888 (Pharmaceutical research, 2012):

System: tubulin
Assay: tubulin assembly inhibition, turbidimetry at […] nm
Assay type: biochemical, Bos taurus
Conditions: read-out: Inhibition of / Tubulin Assembly IC50±SD

COc1ccc(N(C)c2nc(C)nc3cc[nH]c23)cc1 [compound 3, N-(4-Methoxyphenyl)-N,2-dimethyl-5H-pyrrolo[3,2-d]pyrimidin-4-amine]
IC50: 10 ± 0.6 µM
